# Results taken from ChEMBL document CHEMBL1121712, “Permethyl analogue of the pyrrolic antibiotic distamycin A” (J Med Chem, 1981).
# Key:
# Plasmodium berghei = assay: Mean survival time in blood schizonticidal screen against Plasmodium berghei at 640 mg/kg by Rane assay; Non-toxic; type: functional, organism-based; set-up: dose 640 mg/kg
# Mus musculus = organism: Mus musculus; assay: Mean survival time at a dose of 25 ug/mL in mouse fibroblasts and Maloney sarcoma transplanted 3T3 fibroblasts by using Rane assay; Nontoxic; type: functional, organism-based
# [1] = Dissociation constant was determined; type: physicochemical
pKa [1],Compound,Mean survival time (Plasmodium berghei),Mean survival time (Mus musculus)
,Cc1c(NC=O)c(C)n(C)c1C(=O)Nc1c(C)c(C(=O)NCCC(=N)N)n(C)c1C,Non-toxic,Non-toxic
5.5,Cc1c([N+](=O)[O-])c(C)n(C)c1C(=O)O,,
,Cc1c(NC=O)c(C)n(C)c1C(=O)NCCC(=N)N,Non-toxic,Non-toxic
